{
  "source": "patent US20030175216A1",
  "about": "“Oral antimicrobial and anti-odor compositions” (Innoscent LTD., priority 2001, published 2003)",
  "key": {"C. xerosis": {"system": "C. xerosis", "test": "Agar plate zone of growth inhibition", "type": "cell-based, Corynebacterium xerosis", "description": "(§1) Five microliters of the higher alcohol solutions were placed on the surface of a rich (Brain-heart infusion) agar plate immediately after seeding with a mono-specific bacterial or yeast culture. The plates were incubated for 24-48 hours, and, following further microbial proliferation, the diameters of the zones of growth inhibition were measured (results expressed in centimeters). In a further set of experiments, the effect of solvent type on the antimicrobial activity of the C9 alcohol was investigated. […] These solutions were tested for antimicrobial activity towards three microorganisms (M. lysodeikticus, S. mutans and Corynebacterium xerosis) using the same assay as described above."}, "M. lysodeikticus": {"system": "M. lysodeikticus", "test": "Agar plate zone of growth inhibition", "type": "cell-based", "description": "as §1, with “above. The relationship of the concentration of the C9 alcohol to its antimicrobial activity was also investigated. […] These solutions were tested in the assay described above for their ability to inhibit the growth of the bacteria M. lysodeikticus and S. mutans.” for “above.”"}, "C. albicans": {"system": "C. albicans", "test": "Agar plate zone of growth inhibition", "type": "cell-based, Candida albicans", "description": "(§2) The higher alcohols were tested for antimicrobial activity against Gram positive bacteria (Streptococcus mutans), Gram negative bacteria (Pseudomonas spp., Escherichia coli, […]) and the yeast Candida albicans. […] Five microliters of the higher alcohol solutions were placed on the surface of a rich (Brain-heart infusion) agar plate immediately after seeding with a mono-specific bacterial or yeast culture. The plates were incubated for 24-48 hours, and, following further microbial proliferation, the diameters of the zones of growth inhibition were measured (results expressed in centimeters)."}, "E. faecalis": {"system": "E. faecalis", "test": "Agar plate zone of growth inhibition", "type": "cell-based", "description": "as §2"}, "Pseudomonas aeruginosa": {"system": "Pseudomonas aeruginosa", "test": "Agar plate zone of growth inhibition", "type": "cell-based", "description": "as §2"}, "S. mutans": {"system": "S. mutans", "test": "Agar plate zone of growth inhibition", "type": "cell-based, Streptococcus mutans", "description": "as §1, with “The higher alcohols were tested for antimicrobial activity against Gram positive bacteria (Streptococcus mutans), Gram negative bacteria (Pseudomonas spp., Escherichia coli, […]) and the yeast Candida albicans. […] Five” for “Five”, “above. The relationship of the concentration of the C9 alcohol to its antimicrobial activity was also investigated. […] These solutions were tested in the assay described above for their ability to inhibit the growth of the bacteria M. lysodeikticus and S. mutans.” for “above.”"}, "[1]": {"system": "odor formation in freshly-taken morning saliva", "test": "Inhibition of in vitro odor formation by higher alcohols (saliva in decarboxylase medium)", "type": "cell-based", "description": "A series of test tubes were prepared, each containing 5 ml of decarboxylase medium (0.5% peptone, 0.3% yeast extract, 0.1% dextrose and 0.02% bromocresol purple). […] The tubes were incubated at 37° C. for three days. Following incubation, the odor was determined by a panel of odor judges, using the following semi-quantitative scale 0=no odor 1=very slight odor […] The higher alcohols tested were alkanols of chain length C8, C9, C10, C11, C12, C14, C16 and C18."}, "E. coli": {"system": "E. coli", "test": "Agar plate zone of growth inhibition", "type": "cell-based, Escherichia coli", "description": "as §2"}, "[2]": {"system": "bacteria and yeast tested", "test": "Agar plate growth inhibition, summary statements over the test microorganisms", "type": "cell-based", "details": "for antimicrobial activity (summary): C. xerosis", "description": "as §1, with “The higher alcohols were tested for antimicrobial activity against Gram positive bacteria (Streptococcus mutans), Gram negative bacteria (Pseudomonas spp., Escherichia coli, […]) and the yeast Candida albicans. […] Five” for “Five”, “above. The relationship of the concentration of the C9 alcohol to its antimicrobial activity was also investigated. […] These solutions were tested in the assay described above for their ability to inhibit the growth of the bacteria M. lysodeikticus and S. mutans.” for “above.”"}, "[3]": {"details": "1% in 70% ethanol, solvent study"}, "[4]": {"details": "0.3% C9 in 70% ethanol, concentration series"}, "[5]": {"details": "0.5% C9 in 70% ethanol, concentration series"}, "[6]": {"details": "1% C9 in 70% ethanol, concentration series"}, "[7]": {"details": "2% C9 in 70% ethanol, concentration series"}, "[8]": {"details": "3% C9 in 70% ethanol, concentration series"}, "[9]": {"details": "4% C9 in 70% ethanol, concentration series"}, "[10]": {"details": "5% C9 in 70% ethanol, concentration series"}, "[11]": {"details": "10% C9 in 70% ethanol, concentration series"}, "[12]": {"details": "5 μl of 0.1% solution in 70% ethanol"}, "[13]": {"details": "5 μl of 1% solution (C8-C12 in 70% ethanol, C14-C18 in 100% ethanol)"}, "[14]": {"details": "10 μl of 1% solution, scale 0-5"}, "[15]": {"details": "20 μl of 1% solution, scale 0-5"}, "[16]": {"details": "30 μl of 1% solution, scale 0-5"}, "[17]": {"details": "40 μl of 1% solution, scale 0-5"}},
  "data": [
    {"smiles": "CCCCCCCCCO", "note": "[C9, 1-nonanol]", "values": [
      {"measurement": "diameter of zone of growth inhibition, C. xerosis", "setting": "C. xerosis; 1% C9 in 2-propanol", "value": 1.0, "unit": "centimeters"},
      {"measurement": "diameter of zone of growth inhibition, C. xerosis", "setting": "C. xerosis; 1% C9 in 100% methanol", "value": 0.4, "unit": "centimeters"},
      {"measurement": "diameter of zone of growth inhibition, C. xerosis", "setting": "C. xerosis; [3]", "value": 0.9, "unit": "centimeters"},
      {"measurement": "diameter of zone of growth inhibition, M. lysodeikticus", "setting": "M. lysodeikticus; 0.1% C9 in 70% ethanol, concentration series", "value": 0.7, "unit": "centimeters"},
      {"measurement": "diameter of zone of growth inhibition, M. lysodeikticus", "setting": "M. lysodeikticus; 0.2% C9 in 70% ethanol, concentration series", "value": 0.9, "unit": "centimeters"},
      {"measurement": "diameter of zone of growth inhibition, M. lysodeikticus", "setting": "M. lysodeikticus; [4]", "value": 0.7, "unit": "centimeters"},
      {"measurement": "diameter of zone of growth inhibition, M. lysodeikticus", "setting": "M. lysodeikticus; [5]", "value": 0.7, "unit": "centimeters"},
      {"measurement": "diameter of zone of growth inhibition, M. lysodeikticus", "setting": "M. lysodeikticus; 1% C9 in 2-propanol", "value": 1.3, "unit": "centimeters"},
      {"measurement": "diameter of zone of growth inhibition, M. lysodeikticus", "setting": "M. lysodeikticus; [6]", "value": 0.7, "unit": "centimeters"},
      {"measurement": "diameter of zone of growth inhibition, M. lysodeikticus", "setting": "M. lysodeikticus; 1% C9 in 100% methanol", "value": 0.9, "unit": "centimeters"},
      {"measurement": "diameter of zone of growth inhibition, M. lysodeikticus", "setting": "M. lysodeikticus; [3]", "value": 0.7, "unit": "centimeters"},
      {"measurement": "diameter of zone of growth inhibition, M. lysodeikticus", "setting": "M. lysodeikticus; [7]", "value": 0.9, "unit": "centimeters"},
      {"measurement": "diameter of zone of growth inhibition, M. lysodeikticus", "setting": "M. lysodeikticus; [8]", "value": 0.9, "unit": "centimeters"},
      {"measurement": "diameter of zone of growth inhibition, M. lysodeikticus", "setting": "M. lysodeikticus; [9]", "value": 0.9, "unit": "centimeters"},
      {"measurement": "diameter of zone of growth inhibition, M. lysodeikticus", "setting": "M. lysodeikticus; [10]", "value": 0.9, "unit": "centimeters"},
      {"measurement": "diameter of zone of growth inhibition, M. lysodeikticus", "setting": "M. lysodeikticus; [11]", "value": 0.9, "unit": "centimeters"},
      {"measurement": "diameter of zone of growth inhibition, C. albicans", "setting": "C. albicans; [12]", "value": 0.8, "unit": "centimeters"},
      {"measurement": "diameter of zone of growth inhibition, C. albicans", "setting": "C. albicans; [13]", "value": 0.9, "unit": "centimeters"},
      {"measurement": "diameter of zone of growth inhibition, E. faecalis", "setting": "E. faecalis; [12]", "value": 0.7, "unit": "centimeters"},
      {"measurement": "diameter of zone of growth inhibition, E. faecalis", "setting": "E. faecalis; [13]", "value": 0.9, "unit": "centimeters"},
      {"measurement": "diameter of zone of growth inhibition, Pseudomonas aeruginosa", "setting": "Pseudomonas aeruginosa; 5 μl of 0.05% solution in 70% ethanol", "value": 0.7, "unit": "centimeters"},
      {"measurement": "diameter of zone of growth inhibition, Pseudomonas aeruginosa", "setting": "Pseudomonas aeruginosa; [12]", "value": 0.7, "unit": "centimeters"},
      {"measurement": "diameter of zone of growth inhibition, Pseudomonas aeruginosa", "setting": "Pseudomonas aeruginosa; [13]", "value": 0.6, "unit": "centimeters"},
      {"measurement": "diameter of zone of growth inhibition, S. mutans", "setting": "S. mutans; [4]", "value": 0.8, "unit": "centimeters"},
      {"measurement": "diameter of zone of growth inhibition, S. mutans", "setting": "S. mutans; [5]", "value": 0.9, "unit": "centimeters"},
      {"measurement": "diameter of zone of growth inhibition, S. mutans", "setting": "S. mutans; 1% C9 in 2-propanol", "value": 1.3, "unit": "centimeters"},
      {"measurement": "diameter of zone of growth inhibition, S. mutans", "setting": "S. mutans; [6]", "value": 0.7, "unit": "centimeters"},
      {"measurement": "diameter of zone of growth inhibition, S. mutans", "setting": "S. mutans; 1% C9 in 100% methanol", "value": 0.9, "unit": "centimeters"},
      {"measurement": "diameter of zone of growth inhibition, S. mutans", "setting": "S. mutans; [3]", "value": 0.8, "unit": "centimeters"},
      {"measurement": "diameter of zone of growth inhibition, S. mutans", "setting": "S. mutans; [7]", "value": 0.8, "unit": "centimeters"},
      {"measurement": "diameter of zone of growth inhibition, S. mutans", "setting": "S. mutans; [8]", "value": 0.9, "unit": "centimeters"},
      {"measurement": "diameter of zone of growth inhibition, S. mutans", "setting": "S. mutans; [9]", "value": 1.0, "unit": "centimeters"},
      {"measurement": "diameter of zone of growth inhibition, S. mutans", "setting": "S. mutans; [10]", "value": 0.9, "unit": "centimeters"},
      {"measurement": "diameter of zone of growth inhibition, S. mutans", "setting": "S. mutans; [12]", "value": 0.9, "unit": "centimeters"},
      {"measurement": "diameter of zone of growth inhibition, S. mutans", "setting": "S. mutans; [13]", "value": 0.9, "unit": "centimeters"},
      {"measurement": "diameter of zone of growth inhibition, S. mutans", "setting": "S. mutans; [11]", "value": 1.0, "unit": "centimeters"},
      {"measurement": "effect on in vitro odor formation (summary)", "setting": "[1]; 10-50 μl of 1% solution", "value": "inhibition of odor formation"},
      {"measurement": "Odor Score (Judge 1)", "setting": "[1]; [14]", "value": 4},
      {"measurement": "Odor Score (Judge 2)", "setting": "[1]; [14]", "value": 4},
      {"measurement": "Odor Score (Judge 1)", "setting": "[1]; [15]", "value": 4},
      {"measurement": "Odor Score (Judge 2)", "setting": "[1]; [15]", "value": 4},
      {"measurement": "Odor Score (Judge 1)", "setting": "[1]; [16]", "value": 0},
      {"measurement": "Odor Score (Judge 2)", "setting": "[1]; [16]", "value": 0},
      {"measurement": "Odor Score (Judge 1)", "setting": "[1]; [17]", "value": 0},
      {"measurement": "Odor Score (Judge 2)", "setting": "[1]; [17]", "value": 0},
      {"measurement": "Odor Score (Judge 1)", "setting": "[1]; 50 μl of 1% solution (C8-C12 in 70% ethanol, C14-C18 in 100% ethanol) in 5 ml medium + 200 μl saliva, 3 days 37° C., scale 0 no odor to 5 extremely foul", "value": 0},
      {"measurement": "Odor Score (Judge 2)", "setting": "[1]; 50 μl of 1% solution, scale 0-5", "value": 0},
      {"measurement": "diameter of zone of growth inhibition, E. coli", "setting": "E. coli; [12]", "value": 1.0, "unit": "centimeters"},
      {"measurement": "diameter of zone of growth inhibition, E. coli", "setting": "E. coli; [13]", "value": 1.0, "unit": "centimeters"},
      {"measurement": "antimicrobial activity (summary)", "setting": "[2]; 1% C9 dissolved in water, M. lysodeikticus, S. mutans", "value": "almost devoid of activity"},
      {"measurement": "antimicrobial activity (summary)", "setting": "[2]; 1% C9 solutions made in the lower alcohols, M. lysodeikticus, S. mutans", "value": "highly active"},
      {"measurement": "share of the maximal antibacterial effect", "setting": "[2]; C9 0.1-0.2% in 70% ethanol, M. lysodeikticus, S. mutans", "value": "more than 75 % of the maximal effect"},
      {"measurement": "effect on microbial growth (summary)", "setting": "[2]; Table VI microorganisms", "value": "inhibit microbial growth"},
      {"measurement": "spectrum of activity", "setting": "[2]; among the higher alcohols tested", "value": "widest spectrum of activity"},
      {"measurement": "C9 alcohol concentration giving the greatest antibacterial activity", "setting": "[2]; in 70% ethanol, range 0-10%, M. lysodeikticus, S. mutans", "value": "≥ 3", "unit": "%"}
    ]}
  ]
}
